{"source": "paper PMC8962522", "about": "“Direct interaction of TrkA/CD44v3 is essential for NGF-promoted aggressiveness of breast cancer cells” (Journal of Experimental & Clinical Cancer Research : CR, 2022)", "system": "CD44v3", "test": "MST binding of P4 to CD44v3", "details": "Supplementary Fig. 6C, listed as P4", "protocol": "MST was conducted using an NT.115 A Pico MST instrument (Nano Temper Technologies GmbH) equipped with red and blue filter sets. The TrkA-His tagged extracellular domain protein (Ala 34-Gly423) (9966-TK-050; R&D Systems, United Kingdom), diluted to 200 nM in PBS-T buffer (supplied by the vendor), was labeled using a Monolith His-Tag Labeling Kit with RED-Tris-NTA (Nano Temper). The RED-Tris-NTA dye was diluted in PBS-T to 100 nM. The mix was incubated at RT in the dark for 30 min. Next, an extract expressing CD44v3-labeled protein (CD44v3-His) and ligand and/or TrkA was mixed at a 1:1 ratio and incubated at RT in the dark for 15 min. For the binding check, peptides and TrkA-His were used. […] The data were analyzed using MO Control Software (Nano Temper).\nTo block the TrkA-CD44v3 association, 4 mimetic peptides of CD44v3 were designed corresponding to zone 1 [(K) STSSNTISAG], zone 2 (WEPNEENEDE), zone 3 (RDRHLSFSGSG) and zone 4 (IDDDEDFISST) (Fig. 2F & G). The binding capacities of the CD44v3 mimetic peptides to TrkA were then measured by MST (Fig. 2H). […] To confirm mimetic peptide 4 binding, we assessed its ability to bind TrkA using nanoscale differential scanning fluorimetry (nanoDSF; Supplementary Fig. 6A & B).\nSupplementary file 13046_2022_2314_MOESM3_ESM.pdf: Additional file 3: Supplementary Figure 1. […] CD44v3 and CD44v6 levels at the plasma membrane were assessed by flow cytometry (A-D). […]", "note": "Entries after “also recorded” stand apart in the source; their conditions may differ."}
{"sequence": "IDDDEDFISST [Peptide 4, mimetic peptide 4 (…) corresponding to the C-terminal region of CD44v3]", "values": [{"measurement": "binding to CD44v3 (in words)", "result": "we did not detect CD44v3/P4 binding; also recorded: binds to TrkA but not to CD44v3"}]}
